Data published in US12089595B2, “Pseudomonas strains and their metabolites to control plant diseases” (T3 Bioscience, Inc., priority 2020, dated 2024).

Test system: E. amylovora Ea110
Test: Field assay on apple trees in the orchard
Type: in vivo, Erwinia amylovora
Conditions: apple orchard 2019; bacteria at 5×10^8 CFU/mL; Ea110 5×10^6 CFU/mL; water control 32.9%
Description: For the field assay, biological control bacteria (0617-T307, 0118-T319, 0318-T327, 0418-T328; see Table 2) that produce RejuAgro A were applied on the flowers of the apple trees in the orchard on May 5th and May 6th of 2019 (40% and 70% bloom of apple flowers) at the concentration of 5×10^8 CFU/mL. The bacterial pathogen E. amylovora Ea110 was inoculated on May 7th (90% bloom), at the concentration of 5×10^6 CFU/mL. […] Compared with streptomycin, the biocontrol bacteria that produce RejuAgro A have similar or better efficacy on controlling fire blight in the apple orchards.

[H]/N=C(/N)N[C@H]1[C@H](O)[C@@H](O)[C@H](O[C@@H]2O[C@@H](C)[C@](O)(C=O)[C@H]2O[C@@H]2O[C@@H](CO)[C@H](O)[C@@H](O)[C@@H]2NC)[C@@H](N/C(N)=N\[H])[C@@H]1O [Streptomycin, reference compound]
percentage of diseased flower clusters: 13.3%
